Source: patent US20180169045A1, “AMINO ACID COMPOSITIONS AND METHODS FOR THE TREATMENT OF LIVER DISEASES” (AXCELLA HEALTH INC., priority 2016, published 2018)

Assays:
Format in all cases: cell-based
[1] = tested on: Primary human hepatic stellate cells; assay: TGFβ1-induced Col1a1 gene expression in primary human hepatic stellate cells (RT-qPCR); conditions: for Col1a1 gene expression, in words: primary human hepatic stellate cells from three donors, 3 ng/mL TGFβ1, 24 h
Experimental: Primary human hepatic stellate cells were obtained from Samsara Sciences based on the following criteria for selecting donors: adult age (between 18 and 50 years), normal BMI (>18.5 and <25), and absence of confounding liver disease. Cells grown in Complete HSC Medium to ˜80% confluence in T75 or T150 flasks below passage 10 were seeded into sterile, collagen I coated, 96-well optical plastic microplates (ThermoScientific, 152036) at 6000 cells per well ([…]) and incubated overnight at 37° C., 5% CO2 in a humidified incubator in DMEM with 2% Fetal Bovine Serum and 1% Antibiotic-Antimycotic.
After the overnight incubation, plates were removed from the incubator and the medium was gently pipetted off and washed twice with 150 μL per well DPBS. The DPBS was removed and the pretreatment medium (±single amino acid dropout, 1×HMDB DMEM+1% Antibiotic-Antimycotic, 10 mM HEPES, ±supplemental amino acid dose; see experiment for medium composition) was applied to the cells at 150 μL per well. Plates were returned to the incubator for 10.5 hours.
After 10.5 hour pretreatment, the medium was removed from the cells, and the same pretreatment medium, now supplemented with 3 ng/mL TGFβ1, was applied. Each plate contained 3 ng/mL TGFβ1 in 1× human plasma amino acid (HMDB or PAA) concentration medium, 0 ng/mL in 1×HMDB, and 3 ng/mL TGFβ1+20 μM Silybin in 1×HMDB to serve as controls. Plates were then incubated for 24 hours at 37° C., 5% CO2.
After 24 hour stimulus, supernatant was removed and frozen at −80° C. in two separate aliquots. The cells were then washed with 125 μL per well Buffer FCW (FastLane Cell Multiplex NR Kit, Qiagen, 216713). The wash buffer was immediately removed and 50 μL of Cell Processing Mix (containing genomic DNA Wipeout buffer) was applied to lyse cells, incubating for 10 minutes at room temperature. RNA lysate was then transferred to 96-well qPCR plates, sealed, and gDNA was digested on thermal cycler at 75° C. for 5 minutes. RNA lysate was frozen at −80° C.
Each 20 μL one-step RT-qPCR reaction contained 4 μL of RNA lysate. Gene expression of Col1a1, Timp2, and Gapdh were multiplexed using the HEX, Cy5, and FAM fluorescent channels, respectively, with commercially available primer-probe mixes (the Human Col1a1 Primer-Probe Set, HEX; the Human Timp2 Primer-Probe Set, Cy5; and the Human Gapdh Primer-Probe Set, FAM from IDT). Gene expression was evaluated using the ΔΔCq method within each single amino acid dropout and supplementation by normalizing to its own 1×HMDB concentration.

[2] = tested on: LX-2 hepatic stellate cells; assay: TGFβ1-induced fibrogenic gene expression (Col1a1, Acta2, Timp2) in LX-2 cells, qRT-PCR; conditions: TGFβ1 5 ng/mL, combinations at 40× HMDB concentrations, N-acetylcysteine 10 mM
[3] = tested on: Primary human PMBC derived macrophages; assay: LPS-induced TNFa secretion in primary human monocyte-derived macrophages (ELISA); parameters: TNFa Measurements Mean (baseline subtracted): unit not given beside the values; conditions: for LPS-induced TNFa secretion, in words: primary human monocyte-derived macrophages
Experimental: Isolation of Peripheral Blood Mononuclear Cell (PBMC) Unpurified buffy coats (Research Blood Components) were carefully poured into 50 mL centrifuge tubes and diluted with room temperature Dulbecco's Phosphate Buffered Saline (dPBS) with Calcium and Magnesium (Gibco). Diluted buffy coats were further divided into four total 50 mL centrifuge tubes at 20 mL per tube. Lymphocyte Separation Medium (Corning) was carefully pipetted to the bottom of each centrifuge tube. Mixtures were centrifuged at 850×g for 32 minutes at 20° C. with 0 deceleration and acceleration.
CD14+ cells were selected using EasySep™ Human CD14 Positive Selection Kit II ([…] Technologies). Cells were resuspended in cold EasySep™ Buffer ([…] Technologies) at 1×10^8 cells/mL. A total of 100 uL/mL EasySep™ Human CD14 Positive Selection Cocktail II was added to the cell suspension, mixed, and incubated at room temperature for 10 minutes. A total of 100 uL/mL RapidSpheres were added to the mixture and incubated at room temperature for 3 minutes after mixing, then RoboSep buffer was added to bring up the total volume to 10 mL. The mixture in a 15 mL tube was placed in magnet and incubated at room temperature for 3 minutes. Supernatant was discarded and 10 mL fresh EasySep™ buffer was added to 15 mL tube. The addition of RoboSep buffer, mixing, and discarding of supernatant was repeated two more times.
Negative and positive fractions were centrifuged at 490×g for 5 minutes at 20° C. with acceleration of 9, deceleration of 9, and resuspended in DMEM (Gibco) and 10% Heat Inactivated Fetal Bovine Serum (Atlanta Bio) and Penicillin/Streptomycin. Cells were counted and centrifuged again at 490×g for 5 minutes at 20° C. with acceleration of 9, deceleration of 9. After centrifugation, cell were resuspended in DMEM (Gibco) and 10% Heat Inactivated Fetal Bovine Serum (Atlanta Bio) and Penicillin/Streptomycin containing 500 U/mL […] and plated at 1-2×10^6 cells/mL on 10 cm tissue culture plates. Cells were kept in 37° C., 5% CO2 in between feedings/harvest.
Cells were fed every 3-4 days by removing media and unattached cells, centrifuging at 490×g for 5 minutes at 20 C with acceleration of 9, deceleration of 9, and resuspending in fresh DMEM (Gibco) and 10% Heat Inactivated Fetal Bovine Serum (Atlanta Bio) and Penicillin/Streptomycincontaining 500 U/mL GM-CSF. Resuspended cells were seeded back onto 10 cm tissue culture plates and incubated at 37° C., 5% CO2.
After complete cell attachment, culture supernatant was removed and cultures were washed 1× with 5 mL PBS. A total of 3 mL room temperature Cellstripper was added and cultures were incubated at 37° C., 5% CO2 for approximately 10 minutes until cells were rounded and beginning to detach. Cell scraper was used to completely detach cells from plate. Collected cell were spun down at 490 g for 5 min at room temperature and resuspended in 10% DMSO in Heat Inactivated Fetal Bovine Serum and immediately frozen in −80 C.
Primary human PMBC derived macrophages were seeded on day 0 at 3.0E4 cells per well in 96-well microplates (ThermoFisher) in Dulbecco's Modified Eagle Medium (DMEM) (Gibco) supplemented with penicillin-streptomycin (Hyclone) and 10% heat inactivated fetal bovine serum (HI-FBS) (Atlanta Bio) and incubated overnight at 37° C., 5% CO2. On day 1, cells were washed once with 150 uL per well DPBS (Gibco) and treated with 75 uL of: • a. Amino acid free DMEM (US Biologicals) containing a defined custom amino acid concentration based on the mean physiological concentrations in blood based on values published in the Human Metabolome Database (HMDB), with 6 mM glucose, 1 mM sodium pyruvate, 10 mM HEPES, 0.2% primocin (InVivoGen); or • b. The same medium described above with one amino acid at various concentrations including complete dropout. […]

Compound	Col1a1 gene expression, in words [1]	LPS-induced TNFa secretion, in words ([3]; Donor 2, 0.15 ng/mL LPS)	LPS-induced TNFa secretion, in words ([3]; Donor 3, 0.15 ng/mL LPS)	also measured
CC(=O)N[C@@H](CS)C(=O)O [N-acetylcysteine]	significantly reduced Col1a1 gene expression in all three donors	significantly reduced	significantly reduced	Col1a1 gene expression, in words [2]: reduced; Timp2 gene expression, in words [2]: reduced; TNFa Measurements Mean (baseline subtracted) ([3]; Donor 1, Conc. 0 X (baseline), LPS 0.15 ng/mL): 0; LPS-induced TNFa secretion, in words ([3]; Donor 1, 0.15 ng/mL LPS): significantly reduced
CC(C)[C@H](N)C(=O)O [Valine, L-Valine]	did not significantly change	–	–	TNFa Measurements Mean (baseline subtracted) ([3]; Donor 1, Conc. 234 μM (baseline), LPS 0.15 ng/mL): 0
NC(=O)CC[C@H](N)C(=O)O [Glutamine, L-Glutamine]	decreased Col1a1 gene expression in two of three donors	increased	increased	TNFa Measurements Mean (baseline subtracted) ([3]; Donor 3, Conc. 749 μM (baseline)): 0
CC(C)C[C@H](N)C(=O)O [Leucine, L-Leucine]	did not significantly change	increased	–	Col1a1 Fold Expression Relative to Control, Mean ([1]; second donor, normalized to Gapdh, Conc. 153 μM (baseline)): 1.01 fold; TNFa Measurements Mean (baseline subtracted) ([3]; Donor 2, Conc. 153 μM (baseline), LPS 0.15 ng/mL): 0
CC[C@H](C)[C@H](N)C(=O)O [Isoleucine, L-Isoleucine]	did not significantly change	increased	–	TNFa Measurements Mean (baseline subtracted) ([3]; Donor 1, Conc. 66 μM (baseline), LPS 0.15 ng/mL): 0
N=C(N)NCCC[C@H](N)C(=O)O [Arginine, L-Arginine]	did not significantly change	–	–	TNFa Measurements Mean (baseline subtracted) ([3]; Donor 1, Conc. 109 μM (baseline), LPS 0.15 ng/mL): 0
